Measurements as given in patent EP2057185B1, “POLYMYXIN DERIVATIVES AND USES THEREOF” (Northern Antibiotics Oy, priority 2006, dated 2008).
Bridge positions count the residues as written; N and C are the ends. Square brackets hold non-standard residues; d marks the D form. Peptide text beside a SMILES is read from it. * marks the point of attachment. Octanoyl = CCCCCCCC(=O)*; Dab = NCC[C@H](N)C(=O)O; Abu = CC[C@H](N)C(=O)O

Key:
A. baumannii ATCC 19606 = experiment: Growth inhibition around wells on LB plates containing rifampin (sensitization); type: cell-based, Acinetobacter baumannii; settings: well containing 4 µg
P. aeruginosa ATCC27853 = experiment: MIC by E-strips on Mueller-Hinton agar with or without NAB7061 (4 µg/ml); type: cell-based, Pseudomonas aeruginosa
Procedure: (§1) MICs were determined by using E-strips (Biodisk Ltd., Solna, Sweden) according to the manufacturer's instructions.
(§2) The strains originated from ATCC (11 strains), CCUG (11 strains), and NCTC (The National Collection of Type Cultures, Colindale, U.K.; 2 strains). Eight strains (the F-strains) were purchased from Mobidiag Ltd., Helsinki, Finland.

P. aeruginosa F58 = experiment: as above; type: cell-based, Pseudomonas aeruginosa
Procedure: as §1, §2

P. aeruginosa CCUG51971 = experiment: as above; type: cell-based, Pseudomonas aeruginosa
Procedure: as §1, §2

P. mirabilis ATCC29906 = experiment: Growth inhibition around wells on LB agar plates; type: cell-based, Proteus mirabilis; settings: growth inhibition area around well
Procedure: (§3) From an overnight-grown culture of IH3080 on LB agar, a suspension of approx. 10^8 cells/ml was prepared in 0.9% NaCl. Aliquots of this suspension were then pipetted on the agar plates and the plates were gently shaken to spread the suspension evenly on the entire surface of the plate. Thereafter, the unabsorbed part of the suspension was removed by using a Pasteur pipette. After the surface had dried, small wells (diameter, 2 mm) were drilled on the plates (five wells per plate) by using a sterile sharp-edged narrow metal tube, single-use pipette tip, and vacuum suction. Samples (4 µl and 10 µl) of the peptide solution in 0.9% NaCl (at concentrations of 1 µg/ml and 0.1 µg/ml) were then pipetted to the wells and the sample fluids were allowed to absorb. Controls included 0.9% NaCl solution without the compound to be tested. The plates were then incubated for 18 h at 37°C whereafter the diameters of growth inhibition zones around each well were measured; the diameter of the well itself was […]. Finally, the diameters were converted to surface areas of growth inhibition (in square mm).
(§4) The susceptibility of eleven Gram-negative bacterial strains (nine different species) to NAB734 and polymyxin B was compared by using the susceptibility determination method described in Example 2. […]

S. aureus ATCC 25923 = experiment: Growth inhibition around wells on LB agar plates; type: cell-based, Staphylococcus aureus; settings: growth inhibition area around well
Procedure: as §3, §4

S. marcescens ATCC8100 = experiment: Growth inhibition around wells on LB agar plates; type: cell-based, Serratia marcescens; settings: growth inhibition area around well
Procedure: as §3, §4

E. coli ATCC25922 = experiment: Growth inhibition around wells on LB agar plates; type: cell-based, Escherichia coli; settings: growth inhibition area around well
Procedure: as §3, §4

CCCCCCCC(=O)N[C@H](C(=O)N[C@@H](CC)C(=O)N[C@H]1CCNC(=O)[C@H]([C@@H](C)O)NC(=O)[C@H](CCN)NC(=O)[C@H](CCN)NC(=O)[C@H](CC(C)C)NC(=O)[C@@H](Cc2ccccc2)NC(=O)[C@H](CCN)NC1=O)[C@@H](C)O [NAB 7061, OA-Thr-Abu-cy[Dab-Dab-DPhe-Leu-Dab-Dab-Thr-]] (Octanoyl-T[Abu][Dab][Dab][dF]L[Dab][Dab]T; lactam 3-C)
Antibacterial activity, rifampin 0 (A. baumannii ATCC 19606; no rifampin (control)): 0 square millimeters | Antibacterial activity, rifampin 0.1 (A. baumannii ATCC 19606; rifampin 0.1 µg/ml): 28 square millimeters | Antibacterial activity, rifampin 0.3 (A. baumannii ATCC 19606; rifampin 0.3 µg/ml): 50 square millimeters | MIC (µg/ml) of clarithromycin in the presence of 4 µg/ml of NAB 7061 (P. aeruginosa ATCC27853): […] | MIC (µg/ml) of rifampin in the presence of 4 µg/ml of NAB 7061 (P. aeruginosa ATCC27853): […] | Sensitization factor to clarithromycin (P. aeruginosa ATCC27853; 4 µg/ml of NAB 7061): […] | Sensitization factor to rifampin (P. aeruginosa ATCC27853; 4 µg/ml of NAB 7061): […] | MIC (µg/ml) of clarithromycin in the presence of 4 µg/ml of NAB 7061 (P. aeruginosa F58): […] | MIC (µg/ml) of rifampin in the presence of 4 µg/ml of NAB 7061 (P. aeruginosa F58): >32 µg/mL | Sensitization factor to clarithromycin (P. aeruginosa F58; 4 µg/ml of NAB 7061): <2 | Sensitization factor to rifampin (P. aeruginosa F58; 4 µg/ml of NAB 7061): <2 | MIC (µg/ml) of clarithromycin in the presence of 4 µg/ml of NAB 7061 (P. aeruginosa CCUG51971): […] | MIC (µg/ml) of rifampin in the presence of 4 µg/ml of NAB 7061 (P. aeruginosa CCUG51971): >32 µg/mL | Sensitization factor to clarithromycin (P. aeruginosa CCUG51971; 4 µg/ml of NAB 7061): <2 | Sensitization factor to rifampin (P. aeruginosa CCUG51971; 4 µg/ml of NAB 7061): <2

Polymyxin B
Antibacterial activity 4 µg (P. mirabilis ATCC29906; 4 µg): 0 square millimeters | Antibacterial activity 10 µg (P. mirabilis ATCC29906; 10 µg): 0 square millimeters | Antibacterial activity 4 µg (S. aureus ATCC 25923; 4 µg): 0 square millimeters | Antibacterial activity 10 µg (S. aureus ATCC 25923; 10 µg): 0 square millimeters | Antibacterial activity 4 µg (S. marcescens ATCC8100; 4 µg): 0 square millimeters | Antibacterial activity 10 µg (S. marcescens ATCC8100; 10 µg): 0 square millimeters | Antibacterial activity 4 µg (E. coli ATCC25922; 4 µg): 95 square millimeters | Antibacterial activity 10 µg (E. coli ATCC25922; 10 µg): 133 square millimeters
